“Also recorded” adds a separate entry of the source.
Experiments:
[1] = system: OVA peptide-pulsed target cells; assay: In vivo CTL killing assay; design: species or system mouse; settings: Tlr1−/− or Tlr2−/− mice
[2] = system: mice; assay: In vivo adjuvant activity and toxicity in mice when co-injected with an immunogen; settings: compared with LPS administration
[3] = target: T1, human TLR1/TLR2 (Homo sapiens, UniProt O60603+Q15399); assay: TNF in THP-1 cells pretreated with anti-TLR1 or anti-TLR2 antibody; assay type: cell-based; settings: 250 pM, 4 hours; antibody 20 μg/ml, 1 hour pretreatment
T1 construct: TNF in the supernatants of human THP-1 cells pretreated with control antibody, anti-TLR1 (20 μg/ml), or anti-TLR2 (20 μg/ml); host or cells: THP-1 cells differentiated with 100 nM PMA
T1 sequence (Q15399 25-786): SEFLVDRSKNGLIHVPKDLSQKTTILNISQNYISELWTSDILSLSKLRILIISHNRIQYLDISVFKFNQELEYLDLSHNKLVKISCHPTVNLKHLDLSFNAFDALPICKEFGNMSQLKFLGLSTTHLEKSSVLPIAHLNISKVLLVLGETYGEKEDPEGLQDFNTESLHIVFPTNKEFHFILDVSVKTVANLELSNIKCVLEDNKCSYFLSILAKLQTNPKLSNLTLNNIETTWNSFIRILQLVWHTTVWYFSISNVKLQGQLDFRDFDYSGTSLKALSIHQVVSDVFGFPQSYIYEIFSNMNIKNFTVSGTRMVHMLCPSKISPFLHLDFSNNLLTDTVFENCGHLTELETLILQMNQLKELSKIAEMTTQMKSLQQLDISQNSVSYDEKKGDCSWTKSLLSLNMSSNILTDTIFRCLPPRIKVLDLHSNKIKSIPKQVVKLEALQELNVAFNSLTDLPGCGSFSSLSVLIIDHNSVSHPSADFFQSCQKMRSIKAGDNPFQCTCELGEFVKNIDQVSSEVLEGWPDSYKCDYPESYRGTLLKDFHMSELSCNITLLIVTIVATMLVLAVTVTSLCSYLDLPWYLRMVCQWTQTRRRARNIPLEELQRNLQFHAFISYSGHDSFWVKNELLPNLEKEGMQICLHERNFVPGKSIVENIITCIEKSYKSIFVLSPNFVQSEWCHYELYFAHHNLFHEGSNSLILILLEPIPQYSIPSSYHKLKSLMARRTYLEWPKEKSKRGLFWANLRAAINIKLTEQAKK
T1 sequence (O60603 21-784): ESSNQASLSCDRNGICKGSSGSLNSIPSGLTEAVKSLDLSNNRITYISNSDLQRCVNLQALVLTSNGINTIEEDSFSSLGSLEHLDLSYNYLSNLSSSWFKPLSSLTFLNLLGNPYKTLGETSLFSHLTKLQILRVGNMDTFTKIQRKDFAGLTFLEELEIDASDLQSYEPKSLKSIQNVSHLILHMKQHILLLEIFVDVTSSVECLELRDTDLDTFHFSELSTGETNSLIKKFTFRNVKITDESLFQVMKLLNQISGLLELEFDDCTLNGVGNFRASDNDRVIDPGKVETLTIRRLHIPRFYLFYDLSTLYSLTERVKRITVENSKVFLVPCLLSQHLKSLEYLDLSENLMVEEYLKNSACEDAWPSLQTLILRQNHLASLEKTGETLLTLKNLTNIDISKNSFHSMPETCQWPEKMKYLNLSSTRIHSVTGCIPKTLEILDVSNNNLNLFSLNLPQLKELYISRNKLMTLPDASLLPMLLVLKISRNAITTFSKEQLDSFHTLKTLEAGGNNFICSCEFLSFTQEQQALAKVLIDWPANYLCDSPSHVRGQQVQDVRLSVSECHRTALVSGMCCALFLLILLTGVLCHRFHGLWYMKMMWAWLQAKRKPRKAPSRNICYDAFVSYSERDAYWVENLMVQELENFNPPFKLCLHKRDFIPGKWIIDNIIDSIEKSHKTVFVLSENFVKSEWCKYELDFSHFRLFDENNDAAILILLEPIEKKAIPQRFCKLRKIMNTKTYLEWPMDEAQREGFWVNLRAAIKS
Protocol: (§1) Cells were seeded onto 96-well plates at 1×10^5 cells per well and stimulated with a Diprovocim (dissolved in DMSO, and final DMSO concentrations (0.2%) were kept constant in all experiments) for 4 h. Mouse TNF, IL-6, or IFN-β, or human TNF in the supernatants were measured by ELISA kits according to the manufacturer's instructions (eBioscience and PBL Assay Science). Pretreatment with 20 μg/ml anti-TLR1, anti-TLR2 or isotype control antibody (eBioscience) was for 1 hour. Unless otherwise indicated, mouse cells were from wild type C57BL/6J mice.

[4] = system: human PBMC; assay: TNF production by human PBMC (ELISA); assay type: cell-based; settings: 24 hours
Protocol: (§2) For murine BMDCs, bone morrow cells were cultured in Petri dishes in 10 ml DMEM cell culture medium containing 10 ng/ml of murine GM-CSF (R&D Systems). On day 3 of culture, this was replaced with fresh GM-CSF medium. Loosely adherent cells were transferred to a fresh Petri dish and cultured for an additional 4 d. Human PBMC were purchased from Stemcell Technologies. THP-1 (ATCC) cells were differentiated by treatment with 100 nM PMA (Sigma) in RPMI cell culture medium [RPMI containing 10% vol/vol FBS (Gemini Bio Products), 1% penicillin and streptomycin (Life Technologies)] for 24 hours. After that, cells were washed with PBS and cultured in fresh RPMI cell culture medium for 24 hours before use in studies.
[…] Mouse TNF, IL-6, or IFN-β, or human TNF in the supernatants were measured by ELISA kits according to the manufacturer's instructions (eBioscience and PBL Assay Science). Pretreatment with 20 μg/ml anti-TLR1, anti-TLR2 or isotype control antibody (eBioscience) was for 1 hour. Unless otherwise indicated, mouse cells were from wild type C57BL/6J mice.

[5] = system: mouse BMDC; assay: IL-6 production by mouse BMDC (ELISA); assay type: cell-based; settings: 4 hours
Protocol: as §2, §1

[6] = system: MAPK and canonical NF-κB signaling; assay: Western blotting of mouse peritoneal macrophage lysates; assay type: cell-based; settings: mouse peritoneal macrophages, 500 nM
Protocol: Mouse peritoneal macrophages or human THP-1 cells (1×10^6 per well) were stimulated in 12-well plates with a Diprovocim at 500 nM for mouse cells or 5 nM for human cells for the indicated times and lysed directly in sample buffer (Sigma). Cell lysates were separated by SDS-PAGE and transferred to nitrocellulose membranes. Membranes were probed with the following antibodies: phospho-IKKα (Ser176)/IKKβ (Ser177), IκBα, phospho-p38 (Thr180/Tyr182), phospho-JNK (Thr183/Tyr185), phospho-ERK1/2 (Thr202/Tyr204) (Cell Signaling Technology) and β-Actin (Sigma).

[7] = system: B16-OVA melanoma; assay: B16-OVA melanoma, pre-tumor treatment (immunization on day of tumor inoculation); assay type: in vivo, mouse
Protocol: FIG. 4A through FIG. 4J illustrate inhibition of B16-OVA tumor growth by pre- or post-tumor treatment with Diprovocim-adjuvanted tumor vaccination and checkpoint blockade. FIG. 4A provides a schematic of pre- and post-tumor treatment protocols. C57BL/6J mice (n=8 mice per treatment) were injected s.c. with 2×10^5 B16-OVA melanoma cells on day 0. For pre-tumor treatment, mice were immunized i.m. with OVA (100 μg) mixed with vehicle or Diprovocim (10 mg/kg) or alum (2 mg/kg) on the same day prior to tumor injection. Mice received a booster immunization seven days later in which anti-PD-L1 (200 μg) was administered on days 3, 6 and 9 after tumor inoculation by i.p. injection. For post-tumor treatment, initial immunization was on day 3 after tumor inoculation, with a booster seven days later. Anti-PD-L1 (200 μg) was administered on days 3, 6, 9, 12, and 15 after tumor inoculation by i.p. injection. FIG. 4B through FIG. 4F illustrate pre-tumor treatment results. Tumor volume (FIG. 4B and FIG. 4D) and percent mouse survival (survivors/total mice) (FIG. 4C and FIG. 4E). […] FIG. 4G through FIG. 4J illustrate a comparison of pre-tumor (FIG. 4G and FIG. 4H) vs. post-tumor treatment (FIG. 4I and FIG. 4J). Tumor volume (FIG. 4G and FIG. 4I) and percent mouse survival (survivors/total mice) (FIG. 4H and FIG. 4J) are shown. P values for tumor volume analysis apply to the final time point as indicated in graphs and were calculated by Student's t test. P values for survival analysis were calculated by Kaplan-Meier analysis. All results are representative of two independent studies.
C57BL/6J mice (n=8) were injected s.c. with 2×10^5 B16-OVA melanoma cells on day 0. Anti-PD-L1 (200 μg) or mouse IgG2a isotype control antibody was administered on days 3, 6 and 9 after tumor inoculation by i.p. injection. FIG. 8A is a graph of tumor volume versus time and FIG. 8B is a graph showing percent mouse survival (survivors/total mice) versus time. The control values in both plots are shown above those for the anti-PD-L1 values where the two values diverge. […] Results are representative of two independent studies.
B16-OVA cells (B16F10 melanoma cells stably expressing chicken ovalbumin) were grown in DMEM containing 10% vol/vol FBS. A total of 2×10^5 B16-OVA cells in 100 μL PBS were injected s.c. into the right flank of 8-12 week old male C57BL/6J mice to establish tumors (n=8 mice per group). For pretreatment, 10 mg/kg Diprovocim-1 or 2 mg/kg alum with or without OVA (100 μg) was injected i.m. into mice on the same day as tumor inoculation (day 0). Mice received a booster shot seven days after the first immunization. On day 3, 6 and 9, some groups were injected i.p. with 200 μg checkpoint inhibitor (anti-mPD-L1, BioXcell) in 100 μl saline.
Tumors were measured with a digital caliper (Fisher) and the tumor sizes were calculated using the following formula: volume=0.5×length×width^2. Mice were sacrificed when the tumor length or width reached 2 cm.

[8] = system: B16-OVA and B16F10 tumor cells; assay: Re-challenge of tumor-free survivors with B16-OVA and B16 cells; assay type: in vivo, mouse; settings: survivors of Diprovocim+OVA plus anti-PD-L1, no further therapy
[9] = system: human THP-1 cells; assay: TNF production by PMA-differentiated human THP-1 cells (ELISA); assay type: cell-based; settings: 4 hours
Protocol: as §2, §1

SMILES: O=C(N[C@H]1C[C@@H]1c1ccccc1)[C@@H]1CN(C(=O)c2ccc(C(=O)N3C[C@@H](C(=O)N[C@H]4C[C@@H]4c4ccccc4)[C@H](C(=O)N[C@H]4C[C@@H]4c4ccccc4)C3)cc2)C[C@H]1C(=O)N[C@H]1C[C@@H]1c1ccccc1 [Diprovocim-1, (3S,3'S,4S,4'S)-1,1′-Terephthaloylbis(N^3,N^4-bis((1S,2R)-2-phenylcyclo-propyl)pyrrolidine-3,4-dicarboxamide)]
- adjuvant activity in CTL killing in TLR1- and/or TLR2-deficient mice [1]: abrogated
- overt toxicity when used as an adjuvant [2]: did not display the overt toxicity
- effect on THP-1 cells (TNF) after TLR1 or TLR2 antibody [3]: significantly reduced
- activation of TNF production compared with Pam3CSK4 [4]: more potent and efficacious; also recorded: more potent than Pam3CSK4
- EC50 ([4]; read-out: EC50, dose-dependent TNF production): 0.875 nM
- IL-6 production [5]: induced IL-6 production
- phosphorylation of signaling proteins and IκBα degradation [6]: induced phosphorylation of IκKα, IKKβ, p38, JNK, and ERK, as well as degradation of IκBα
- tumor growth or mouse survival ([7]; Diprovocim alone (no OVA) combined with anti-PD-L1 treatment): no effect
- effect on tumor growth, survival rate, and survival time compared with alum ([7]; pre-tumor treatment): superior to that of alum
- tumor growth rates and survival times compared with vehicle alone ([7]; single agent, no anti-PD-L1, i.m. day 0 and booster day 7): similar
- memory response on tumor re-challenge [8]: antigen-specific memory responses that protect the host from relapse of tumor growth
- EC50 ([9]; Homo sapiens, THP-1 cells, read-out: EC50, dose-dependent TNF production): 0.11 nM
- activation of TNF production compared with Pam3CSK4 ([9]; human THP-1 cells): more potent and efficacious; also recorded: more potent than Pam3CSK4

Reference: patent publication US20210315992A1, “ADJUVANT EFFECT OF THE TLR1/2 AGONIST DIPROVOCIM SYNERGIZES WITH CHECKPOINT-INHIBITING ANTIBODIES TO ELIMINATE DISEASE” (The Board of Regents of the University of Texas System, priority 2018, published 2021)
